Reference: patent US20040001839A1, “Multimers - isolated molecules comprising epitopes containing sulfated moieties, antibodies to such epitopes, and uses thereof” (priority 2000, published 2004)
Blank lines part the entries; values can stand above or below the compound they belong to. No end group written: not given here. *: point of attachment. sulfate = O=S(=O)(O)*

Experiments:
[1] = test system: KG-1 cells; test: AML KG-1 model in NOD/SCID mice; type: in vivo
Description: The in vivo mouse model for human AML uses SCID/NOD mice (Jackson Laboratories) inoculated with KG-1 cells derived from a human AML cell line.
In a first experiment, NOD/SCID mice were pretreated with 100 mg/kg CYTOXAN®. Four days post CYTOXAN® injection, KG-1 cells were injected intravenously into the tail vein of six groups of mice. (Table N, Groups 2 and 5-9). One group of mice (Table N, Group 1) was injected with PBS alone (control). [273.][273.]
Beginning 19 days post KG-1 injection mice were treated with: CONY1, Doxorubicin, CONY1-Doxorubicin conjugate, or Mylotarg®. (Mylotarg® is a monoclonal antibody (anti CD33) conjugated chemically to calcheamicin recently approved by the FDA for treatment of AML patients age 60 and over in a first relapse.) Mice were treated once or three times per week for three weeks. One group (group 2) of KG-1 inoculated mice were left untreated. (Table N). Two other groups of mice (groups 3 and 4) were injected with KG-1 cells that were previously incubated with CONY1 or 181-scFv (a negative, non-specific control antibody) in serum free RPMI containing 1% BSA at 4° C. for 1 h. The antibodies were used at a concentration of 0.25 mg scFv/10^8 cells (75 μg/mouse). Before injection into the mice the preincubated KG-1 cells were washed and resuspended in RPMI. The KG-1 cells in RPMI were inoculated into mice at a concentration of 75 μg scFv/0.2 ml RPMI per mouse. Group 3 mice were inoculated with KG-1+CONY1, and group 4 mice were inoculated with KG-1+181-scFv. (Table N). This treatment (group 3 and 4) was carried out one day after the inoculation of groups 1-2 and 5-9, i.e., at five days after CYTOXAN injection.
Mice were sacrificed from 60 to 65 days post cell injection. Bone marrow and blood samples were analyzed by flow cytometry using mouse anti human CD34-FITC (IQP 144F) (or anti CD44-FITC (MCA89F, Serotec)) and Y1-Biotin/SAV-PE. Mouse IgG1-FITC (IQP 191-F) was used as an isotype control, and mouse IgG2a-FITC (MCA929F, Serotec) was used as a negative control. Flow cytometry was performed using FACSCalibur system and CellQwest software, Becton Dickinson.
An additional experiment was performed in which SCID-NOD mice were i.v. injected with 3×10^4 MOLT-4 cells/mouse 5 days post treatment with cyclophosphamide. Anti-cancer agents or PBS were injected IV three times/week, from day 14 onward. On day 60, blood was drawn, then the animals were sacrificed. Bone marrow was extracted and analyzed by FACS analysis using a commercially available antiCD44 antibody for the detection of MOLT-4 cells in the mice bone marrow cell population.

[2] = test system: scFv Y1 binding to glycocalicin; test: Competitive binding ELISA of sulfated peptides (scFv Y1 binding to immobilized glycocalicin); design: species or system human; settings: peptide 1, 10 and 100 μM, preincubated 10 minutes with scFv Y1
Description: A competitive binding ELISA assay was used to assess the importance of the presence and position of sulfated tyrosines to the binding of peptides to Y1.
Glycocalicin was immobilized on a Maxisorb plate. scFv Y1 was preincubated with a peptide of interest for 10 minutes at three different concentrations (1, 10 and 100 μM) in order to observe a dose response. (Table 12). After preincubation, the mixture (Y1+peptide) was added to the plate, and binding of scFv Y1 was assessed using polyclonal rabbit anti-VL, which recognizes the VL chain of scFv Y1, followed by anti-rabbit-HRP. In mixtures in which the peptide bound to scFv Y1, a decrease in the binding of scFv Y1 to glycocalicin compared to control binding was observed.

Compound: COc1cccc2c1C(=O)c1c(O)c3c(c(O)c1C2=O)C[C@@](O)(C(=O)CO)C[C@@H]3O[C@H]1C[C@H](N)[C@H](O)[C@H](C)O1 [Doxorubicin]
percentage of KG-1 cells in bone marrow compared to group 2 (untreated) ([1]; 0.1 mg/kg free Doxorubicin, 3 times per week (group 6)): statistically significant (p<0.05) lower percentage of KG-1 cells
mice that died within three weeks after treatment initiation ([1]; 5 mg/kg free Doxorubicin, 1 time per week (group 7)): Nine out of 10
reduction in the number of tumor cells in the bone marrow ([1]; additional experiment, day 60, Doxorubicin alone or as conjugate 75 μg/mouse): 50%

inhibition of Y1 binding to glycocalicin [2]: did inhibit
Compound: GDEGDTDLY*DY*Y*PEEDTE (GDEGDTDLY(sulfate)DY(sulfate)Y(sulfate)PEEDTE) [G-Y*Y*Y*, GPIbα peptide, sulfated]

Compound: Mylotarg: monoclonal antibody (anti CD33) conjugated chemically to calcheamicin
KG-1 cells in bone marrow ([1]; 0.2 mg/kg, 1 time per week (group 9)): free of KG 1 cells
prevalence of bone marrow cancer, day 60 ([1]; additional experiment, 7 μg/mouse, once a week): completely inhibited

inhibition of Y1 binding to glycocalicin [2]: best inhibitors
Compound: QATEYEY*LDY*DFLPETE (QATEYEY(sulfate)LDY(sulfate)DFLPETE) [P-YY*Y*, PSGL-1 n-terminus peptide, sulfated]
